# Entries after “also recorded” stand apart in the source; their conditions may differ.
# What was measured:
# Type in all cases: cell-based, human
# [1] = tested on: miR-130/301 family; assay: RT-qPCR of miR-130/301 family members after transfection of oligonucleotide inhibitors (specificity), PAECs; details: normoxia and hypoxia
# From the text: (§1) FIGS. 14A-14C show the comparison of the specificity of miR-130/301 oligonucleotide inhibitors. (FIG. 14A) Overview of the miRNA silencing approach using seed-targeting tiny locked nucleic acid (LNA) molecules. Tiny LNAs were designed as fully LNA-modified oligonucleotides complementary to the seed region of the miR-130/301 family. The high binding affinity of tiny LNA enables functional inhibition of co-expressed members of miRNA seed families, which leads to de-repression of target mRNAs. Sequences shown in FIG. 14A are miR-130a (SEQ ID NO: 4), miR-130b (SEQ ID NO: 5), miR-301a (SEQ ID NO: 6), miR-301b (SEQ ID NO: 7) and tiny-LNA-130 ([…] SEQ ID NO: 3). […] In the setting of exposure to hypoxia (0.2% O2; 24 h) or normoxia (21% O2; 24 h), expression levels of miR-130/301 family members in PAECs (FIG. 14B) and PASMCs (FIG. 14C) were quantified after transfection with anti-miR-130a versus control (anti-miR-NC) (left panels) or tiny-LNA-130 versus control (tiny-LNA-NC) (right panels). […]
# (§2) Cells were homogenized in 2 ml of QiaZol reagent (Qiagen). […] Total RNA concentration was determined using a ND-1000 micro-spectrophotometer (NanoDrop Technologies).
# (§3) Mature miRNA expression was evaluated using TaqMan MicroRNA Assays (Life Technologies/Applied Biosystems) and the Applied Biosystems 7900HT Fast Real Time PCR device (Life Technologies/Applied Biosystems). […]
# [2] = tested on: miR-130/301 family; assay: RT-qPCR of miR-130/301 family members after transfection of oligonucleotide inhibitors (specificity), PASMCs; details: normoxia and hypoxia
# From the text: as §1, §2, §3
# [3] = tested on: PAECs; assay: Gene/miRNA expression in transfected or drug-treated PAECs (immunoblotting, RT-qPCR)
# From the text: (§4) Pre-miRNA oligonucleotides (pre-miR-130a, pre-miR-204, pre-miR-424, and pre-miR-503 and negative control pre-miR-NC1 and premiR-NC2, Life Technologies), anti-miRNAs oligonucleotides (anti-miR-130a and anti-miR-NC, ThermoScientific), tiny LNA oligonucleotides (tiny-130: 5′-[…]-3′ (SEQ ID NO: 3), and tiny-NC 5′-[…]-3′ (SEQ ID NO: 51), Exiqon), siRNAs (PPARγ and scrambled control, Santa Cruz Biotechnology; HIF-1α, HIF-2α, and scrambled control, Life Technologies) were commercially purchased. PAECs and PASMCs were plated and transfected 24 h later at 70-80% confluence using pre-miRNA (5 nM), anti-miRNA (20 nM), tiny-LNA (20 nM) or siRNA (25 nM) with Lipofectamine 2000 reagent (Life Technologies), according to the manufacturers' instructions.
# (§5) Primary human pulmonary arterial endothelial cells (PAECs) were purchased and propagated in EGM-2 cell culture media (Lonza). Experiments were performed at passages 3 to 6. Primary human pulmonary arterial smooth muscle cells (PASMCs) were purchased and propagated in SmGM-2 cell culture media (Lonza). Experiments were performed at passages 3 to 9. HEK293T cells (American Type Culture Collection) were used and cultivated in DMEM containing 10% fetal bovine serum (FBS). Cells were cultured at 37° C. in a humidified 5% CO2 atmosphere. A modular hypoxia chamber at 0.2% oxygen, 94.8% nitrogen and 5% carbon dioxide was used during 24 h for hypoxic conditions. Cultured cells were exposed to recombinant human IL-1α at 10 ng·mL-1 (Peprotech). Recombinant human IL-6 (Peprotech) was used at 100 ng·mL-1. Rosiglitazone (Sigma) was used at 10 μM.
# (§6) Mature miRNA expression was evaluated using TaqMan MicroRNA Assays (Life Technologies/Applied Biosystems) and the Applied Biosystems 7900HT Fast Real Time PCR device (Life Technologies/Applied Biosystems). Expression levels were normalized to RNU48 or snoR55 for human or mouse experiments, respectively, and calculated using the comparative Ct method (2^−ΔΔCt) as we previously described (1).
# (§7) Messenger RNAs were reverse transcribed using the Multiscript RT kit (Life Technologies) to generate cDNA. cDNA was amplified via fluorescently labeled Taqman primer sets using an Applied Biosystems 7900HT Fast Real Time PCR device, as we previously described (1). Fold-change of RNA species was calculated using the formula (2^−ΔΔCt), normalized to actin expression.
# (§8) Cells were lysed in RIPA buffer (Santa Cruz Biotechnology) and the protein concentration determined using a Bradford assay (Biorad). Protein lysate ([…]) were resolved by SDS-PAGE and transferred onto a PVDF membrane (Biorad). Membranes were blocked in 5% non-fat milk in TN buffer (50 mM Tris-HCl pH 7.4, 150 mM NaCl) and incubated in the presence of the primary and then secondary antibodies. After washing in TN buffer containing 0.1% Tween, immunoreactive bands were visualized with the ECL system (Amersham Biosciences). […] Primary antibodies for STAT3 (#9139) and P-STAT3 (Tyr-705; #9145) were purchased from Cell Signaling. Primary antibodies against actin (ab 3280), α-smooth-muscle-actin (ab 32575), CD31 (ab28364), and PCNA (ab 29) were obtained from Abcam. Appropriate secondary antibodies (anti-rabbit and anti-mouse) coupled to HRP were used (Santa Cruz Biotechnology).
# Pre-miRNA oligonucleotides (pre-miR-130a and negative control pre-miR-NC1 and premiR-NC2), anti-miRNAs oligonucleotides (anti-miR-130a and anti-miR-NC), and custom designed tiny LNA oligonucleotides (tiny-130: 5′-[…]-3′ (SEQ ID NO: 3), and tiny-NC 5′-[…]-3′ (SEQ ID NO: 51)) were purchased from Life Technologies/Ambion, ThermoScientific/Dharmacon, and Exiqon, respectively. siRNAs for PPARγ and scrambled control were purchased from Santa Cruz Biotechnology. PAEC and PASMC were plated and transfected 24 h later at 70-80% confluence using pre-miRNA (5 nM), anti-miRNA (20 nM), tiny-LNA (20 nM) or siRNA (25 nM) and Lipofectamine 2000 reagent (Life Technologies), according to the manufacturers' instructions. […]
# [4] = tested on: PASMCs; assay: Gene/miRNA expression in transfected or drug-treated PASMCs (immunoblotting, RT-qPCR)
# From the text: as §4, §5, §6, §7, §8
# [5] = normoxia or hypoxia, compared with anti-miR-130a
# [6] = tiny-LNA-130: stiffness-mediated up-regulation
# [7] = transcripts 48 h after transfection
substance,measurement,setting,value
"tiny-LNA-130: fully LNA-modified tiny LNA oligonucleotide 5′-ATTGCACT-3′ (SEQ ID NO: 3) complementary to the seed region of the miR-130/301 family (all LNA, backbone and methylation of C not given here)",expression of all miR-130/301 family members,[1],down-regulated; also recorded: effective inhibitors of the entire miR-130/301 family
same,expression of all miR-130/301 family members,[2],down-regulated; also recorded: effective inhibitors of the entire miR-130/301 family
same,PPARγ expression,"[3]; immunoblotting, densitometry",increased
same,"downstream gene/subordinate miRNA alterations (PPARγ, apelin, miR-424, miR-503, FGF2)",[3]; [5],reversed these downstream gene/subordinate miRNA alterations to a greater extent than inhibition of miR-130a alone
same,"collagen, CTGF, and LOX",[3]; [6],reversed
same,CCND1 expression,[3]; [7],decreased
same,"CDKN1A, CDKN1B and CDKN2A expression",[3]; [7],increased
same,"gene expression changes in VEGFA, EDN1 and NOS3","[3]; vs tiny-LNA-NC, transcript in hypoxia, protein in normoxia",reversed these gene expression changes
same,"downstream gene/subordinate miRNA alterations (PPARγ, STAT3, P-STAT3, miR-204)",[4]; [5],reversed such downstream gene/subordinate miRNA alterations to a greater extent than inhibition of miR-130a alone
same,"collagen, CTGF, and LOX",[4]; [6],reversed
same,CCND1 expression,[4]; transcripts,decreased
same,"CDKN1A, CDKN1B and CDKN2A expression",[4]; transcripts,increased
same,NFATC2 and PIM1 expression,[4]; [7],decreased

# From patent publication US20170226507A1, “COORDINATE CONTROL OF PATHOGENIC SIGNALING BY THE MIR-130/301 FAMILY IN PULMONARY HYPERTENSION AND FIBROPROLIFERATIVE DISEASES” (The Brigham and Women's Hospital, Inc., priority 2014, published 2017)
